Measured values from patent publication US20200164005A1, “PHARMACEUTICAL COMPOSITIONS OF A BILE ACID DERIVATIVE AND MICROBIOME AND USES THEREOF” (Intercept Pharmaceuticals, Inc., priority 2017, published 2020).

What was measured:
[1] = tested on: small intestinal microbiota; experiment: 16S tagged sequencing of small intestinal and fecal microbiota of OCA-treated mice; type: in vivo; conditions: 10 mg/kg OCA, 14 days
Text: FIG. 60: The effect of OCA on the composition of the proximal and distal small intestinal, as well as the feces, microbiota of mice based on 16S tagged sequencing.
FIG. 63: Box and whisker plots of differentially abundant taxa in the distal small intestine of mice in response to treatment with OCA relative to two controls. S24-7, Clostridiaceae, and Turibacter are differentially abundant between the MC and OCA groups (fdr=0.1759, 0.04503, and 0.2332, respectively); Sutterella and Akkermansia are differentially abundant between the control and OCA groups (fdr=0.3199 for both).
The bacterial species that increase most prominently upon OCA treatment have been reported to represent a significant proportion of the small intestinal microbiota, but are very minor constituents in stool. For example, Streptococci represent as much as 20% of the human small intestinal microbiota by 16S tagged sequencing (Dlugosz et al., Sci Rep-Uk, 5 (2015)); El Aidy et al., Curr Opin Biotechnol., 32, 14-20 (2015)). […] To determine whether OCA treatment can alter the gut microbiota composition specifically in the small intestine, mice were treated with OCA for 14 days, the microbiota composition in the proximal and distal small intestine, as well as the stool, and quantified bile acids were characterized. […] Also notable was the quantitative difference in the absolute levels of luminal bile acids in the small intestine (approximately 100-fold greater than in the feces, FIGS. 59A-59C); this is consistent with enterohepatic reabsorption of over 95% of bile acids in the terminal ileum of the small intestine (de Aguiar Vallim et al., Cell Metabolism, 17, 657-669 (2013)).

[2] = tested on: bacterial strains found in the human small intestine; experiment: Inhibition of bacterial growth by bile acids, microbroth dilution, optical density at 630 nm; type: cell-based
Protocol: The toxicity of several bile acids to various gut microbiome species was examined. Representative species were exposed to different bile acids at a range of concentrations under either aerobic or anaerobic condition, and the growth of the species at these concentrations was measured by determining the optical density of the culture.
Lactobacillus casei CP was purchased from Custom Probiotics Inc. (Glendale, Calif.) as L. casei Custom Probiotic Powder (strain confirmed by Sanger sequencing of the 16S gene). Pediococcus pentosaceus KE-99 was purchased from Probiohealth (Beverly Hills, Calif.) as KE-99 LACTO Tablet (strain confirmed by Sanger sequencing of the 16S gene). L. casei 393, Streptoccocus thermophilus LMD-9, Akkermansia muciniphila Muc, and Veillonella parvula Te3 were purchased from the American Type Culture Collection (ATCC, Manassas, Va.). Lactococcus lactis NZ9000 was purchased from BOCA Scientific (Boca Raton, Fla.). Escherichia coli Nissle was obtained from Dr. Mark Goulian (University of Pennsylvania, Philadelphia, Pa.).
L. casei, P. pentasaceus, and L. lactis were grown in de Man, Rogosa, and Sharpe (MRS) medium (Anaerobe Systems, Morgan Hill, Calif.); E. coli was grown in lysogeny broth (LB) medium (Fisher Scientific, USA); S. thermophilus and A. muciniphila were grown in brain heart infusion (BHI) medium (Fisher Scientific, USA and Anaerobe Systems, Morgan Hill, Calif.), and; V. parvula was grown in reinforced clostridial medium (Fisher Scientific, USA). Aerobic cultures were incubated at 37° C.; anaerobic cultures were incubated at 37° C. in an anaerobic glove box (Coy Laboratories, Grass Lake, Mich.).
Glycochenodeoxycholic, glycocholic, and taurocholic acids were purchased from Sigma Aldrich (St. Louis, Mo.). Obeticholic acid was provided by Intercept Pharmaceuticals, Inc. (New York, N.Y.).
Inhibition of bacterial growth by bile acids was determined by the microbroth dilution method. Plates were prepared with 100 uL of medium containing the appropriate concentrations of bile acid. Wells were inoculated with 1 uL of an overnight culture, covered, and incubated overnight (3 days for A. muciniphila and V. parvula, which are slow growing organisms). Growth was measured via optical density at 630 nm, and measurements were zeroed against wells containing the appropriate bile acid level with no bacteria. All tests were performed in triplicate. Data is expressed as the percent (%) reduction in growth, which was calculated against controls (i.e., no bile acids). The responses of representative species to different concentrations of bile acids are illustrated by the heat maps shown in FIGS. 53A-53D.

[3] = molecular target: T1, farnesoid X receptor (FXR) (Homo sapiens, UniProt Q96RI1); conditions: cited from earlier work
T1 sequence (Q96RI1 1-486): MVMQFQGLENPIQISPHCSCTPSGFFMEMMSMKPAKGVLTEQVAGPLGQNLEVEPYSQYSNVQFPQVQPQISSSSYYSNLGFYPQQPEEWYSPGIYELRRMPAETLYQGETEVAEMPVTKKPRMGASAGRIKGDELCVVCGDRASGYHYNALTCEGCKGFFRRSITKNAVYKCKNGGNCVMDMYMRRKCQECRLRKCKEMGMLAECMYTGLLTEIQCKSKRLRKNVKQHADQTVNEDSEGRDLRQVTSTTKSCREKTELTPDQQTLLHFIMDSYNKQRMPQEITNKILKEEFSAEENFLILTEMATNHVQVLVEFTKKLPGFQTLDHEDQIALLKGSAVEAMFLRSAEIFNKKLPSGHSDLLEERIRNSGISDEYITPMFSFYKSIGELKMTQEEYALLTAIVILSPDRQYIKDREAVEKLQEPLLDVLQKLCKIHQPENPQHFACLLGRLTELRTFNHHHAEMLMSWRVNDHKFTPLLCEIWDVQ

CC[C@H]1[C@@H](O)[C@@H]2[C@H](CC[C@]3(C)[C@@H]([C@H](C)CCC(=O)O)CC[C@@H]23)[C@@]2(C)CC[C@@H](O)C[C@@H]12 [OCA, 3α,7α-dihydroxy-6α-ethyl-5β-cholan-24-oic acid]
Clostriciaceae family of Firmicutes in proximal and distal small intestine [1]: increased abundance | Clostriciaceae family of Firmicutes in the feces [1]: not in the feces | overall composition of the small intestinal microbiota ([1]; versus water and methylcellulose): different from both control groups | effect on growth at calculated physiologic levels of the human small intestine ([2]; approximately 12 micromolar, aerobically or anaerobically): no effect on any strain tested | effect on growth at high concentrations ([2]; high concentrations of OCA): growth inhibitory effect on several strains | potency as FXR agonist relative to the endogenous FXR agonist CDCA [3]: 100 fold
